Data reported in patent US20260014278A1, “HYBRID PEPTIDE DENDRIMER SYSTEMS AND EXTRAHEPATIC DELIVERY” (NUNTIUS THERAPEUTICS LIMITED, priority 2022, published 2026).

Columns and labels:
human THP-1 cells = assay: eGFP mRNA transfection of human THP-1 macrophages, flow cytometry; format: cell-based; conditions: THP-1, FIG. 3
Protocol: THP-1 cells (a human leukaemia monocytic cell line) were sub-cultured in RPMI (with glutamax)+10% heat inactivated FBS (complete media) at 3E+5 cells/ml and passaged every 3-4 days. For macrophage polarisation 7.5E+6 cells were seeded in T75 flasks in a total of 20 ml complete media containing 5 ng/ml PMA (1:1000 of 5 ug/ml stock). The cells were transferred to the 37° C. incubator for overnight. After 24 hrs, THP-1 cells were washed with complete medium and a fresh flask complete medium (not containing PMA) was overlaid on the cells. After a further 72 hrs, the complete medium was exchanged for fresh complete media containing 20 ng/ml rhlL-4 (1:500 of 10 μg/ml stock). 24 hrs later the cells were harvested by firstly washing the cells with PBS followed by a 5 minute treatment at 37° C. with 5 mM EDTA (diluted in PBS). Cells were spun down at 300 g for 5 minutes and resuspended in a complete medium containing 20 ng/ml rhlL-4 at 2.4E+5 cells/mi. 500 ul of cells were seeded into each well on a 24-well plate and left overnight in the 37° C. incubator.
The medium overlaying the polarised THP-1 cells was aspirated and exchanged with 480 ul/well complete media containing 20 ng/ml rhlL-4. […]
Data were collected using a BD LSRFortessa I analyser running […] software (Beckton Dickinson). All collected data were analysed using FlowJo 10.0 software. […]

[1] = Dynamic light scattering: hydrodynamic size and polydispersity index (PDI) of nanoparticles; format: physicochemical
Outline: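 Hydrodynamic size measured by DLS (Stokes-Einstein), PDI from cumulants fit per ISO 13321/22412. Samples diluted 16× in 25 mM HEPES, water as dispersant, 25° C; PDI measured on dendrimer:nucleic acid 8:1 nanoparticles.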

[2] = GSCG1,2-RHL N:P=0.6:1, DOTMA:DOPE, coated with GSGGSGGSCG1-EEEE, with/without CpG (mRNA:CpG w/w 9:1)
[3] = GSCG1,2-RHL and DOTMA:DOPE nanoparticles, 150 ug/mL mRNA, 40× dilution in 25 mM HEPES buffer
[4] = mRNA, N:P 0.6:1, DOTMA:DOPE w/w 10:1, with or without 3 equivalents G1-EEEE with mannose coating

**Q.** For (RHL)4(KRHL)2KGSC-NH2 [GSCG1,2-RHL], which “increase of transfection efficiency at NP=0.6:1 compared to NP=5:1” value (human THP-1 cells) is on record?
**A.** The value was “approximately 10%”.

**Q.** And the Hydrodynamic size [1, 2]?
**A.** Its Hydrodynamic size is 174 nm.

**Q.** What about the PDI [1, 2] of the same substance?
**A.** The PDI was 0.17.

**Q.** And the “DLS measurement, Pdl” value [1, 3]?
**A.** The value was 0.13.

**Q.** And the “DLS measurement, size” value [1, 3]?
**A.** The value was 184 nm.

**Q.** And the PDI [1, 4]?
**A.** Its PDI is 0.1776.

**Q.** And the size [1, 4]?
**A.** Its size is 149.5 nm.
